Experimental data from patent publication US20230374038A1, “MODULATORS OF CYSTIC FIBROSIS TRANSMEMBRANE CONDUCTANCE REGULATOR” (VERTEX PHARMACEUTICALS INCORPORATED, priority 2020, published 2023).

Target: CFTR (Homo sapiens, UniProt P13569)
Assay: Membrane Potential Dye, Enteroid Assay B
Type: cell-based
Settings: for EC50: read-out: Ent. B EC50
Protocol: Base medium (ADF+++) consisted of Advanced DMEM/Ham's F12, 2 mM Glutamax, 10 mM HEPES, 1 µg/mL penicillin/streptomycin.
Intestinal enteroid maintenance medium (IEMM) consisted of ADF+++, 1× B27 supplement, 1× N2 supplement, 1.25 mM N-acetyl cysteine, 10 mM Nicotinamide, 50 ng/mL hEGF, 10 nM Gastrin, 1 pg/mL hR-spondin-1, 100 ng/mL hNoggin, TGF-b type 1 inhibitor A-83-01, 100 μg/mL Primocin, […] P38 MAPK inhibitor SB202190.
Bath 1 Buffer consisted of 1 mM MgCl2, 160 mM NaCl, 4.5 mM KCl, 10 mM HEPES, 10 mM Glucose, 2 mM CaCl2).
Chloride Free Buffer consisted of 1 mM Magnesium Gluconate, 2 mM Calcium Gluconate, 4.5 mM Potassium Gluconate, 160 mM Sodium Gluconate, 10 mM HEPES, 10 mM Glucose.
Bath1 Dye Solution consisted of Bath 1 Buffer, 0.04% Pluronic F127, […] Methyl Oxonol, 30 μM CaCCinh-A01, 30 μM Chicago Sky Blue.
Chloride Free Dye Solution consisted of Chloride Free Buffer, 0.04% Pluronic F127, 20 μM Methyl Oxonol, 30 μM CaCCinh-A01, 30 μM Chicago Sky Blue.
Chloride Free Dye Stimulation Solution consisted of Chloride Free Dye Solution, 10 μM forskolin, 100 μM IBMX, and 300 nM Compound III.
Human intestinal epithelial enteroid cells were obtained from the Hubrecht Institute for Developmental Biology and Stem Cell Research, Utrecht, The Netherlands and expanded in T-Flasks as previously described (Dekkers J F, Wiegerinck C L, de Jonge H R, Bronsveld I, Janssens H M, de Winter-de Groot K M, Brandsma A M, de Jong N W M, Bijvelds M J C, Scholte B J, Nieuwenhuis E E S, van den Brink S, Clevers H, van der Ent C K, Middendorp S and M Beekman J M. A functional CFTR assay using primary cystic fibrosis intestinal organoids. Nat Med. 2013 July; 19(7):939-45.).
Cells were recovered in cell recovery solution, collected by centrifugation at 650 rpm for 5 min at 4° C., resuspended in TryPLE and incubated for 5 min at 37° C. Cells were then collected by centrifugation at 650 rpm for 5 min at 4° C. and resuspended in IEMM containing 10 μM ROCK inhibitor (RI). The cell suspension was passed through a 40 μm cell strainer and resuspended at 1×10^6 cells/mL in IEMM containing 10 μM RI. Cells were seeded at 5000 cells/well into multi-well plates and incubated for overnight at 37° C., 95% humidity and 5% CO2 prior to assay.
Enteroid cells were incubated with test compound in IEMM for 18-24 hours at 37° C., 95% humidity and 5% CO2. […] Briefly, cells were washed 5 times in Bath 1 Buffer. Bath 1 Dye Solution was added and the cells were incubated for 25 min at room temperature. Following dye incubation, cells were washed 3 times in Chloride Free Dye Solution. Chloride transport was initiated by addition of Chloride Free Dye Stimulation Solution and the fluorescence signal was read for 15 min. […] Chloride transport was then expressed as a percentage of the chloride transport following treatment with 1 μM (14S)-8-[3-(2-{Dispiro[2.0.2.1]heptan-7-yl}ethoxy)-1H-pyrazol-1-yl]-12,12-dimethyl-2λ^6-thia-3,9,11,18,23-pentaazatetracyclo[17.3.1.111,14.05,10]tetracosa-1(22),5,7,9,19(23),20-hexaene-2,2,4-trione, 3 μM (R)-1-(2,2-difluorobenzo[d][1,3]dioxol-5-yl)-N-(1-(2,3-dihydroxypropyl)-6-fluoro-2-(1-hydroxy-2-methylpropan-2-yl)-1H-indol-5-yl)cyclopropanecarboxamide and 300 nM acute N-[2,4-bis(1,1-dimethylethyl)-5-hydroxyphenyl]-1,4-dihydro-4-oxoquinoline-3-carboxamide triple combination control (% Activity).

Sequence of CFTR (P13569 with tags, fused parts or gaps DEL508-508): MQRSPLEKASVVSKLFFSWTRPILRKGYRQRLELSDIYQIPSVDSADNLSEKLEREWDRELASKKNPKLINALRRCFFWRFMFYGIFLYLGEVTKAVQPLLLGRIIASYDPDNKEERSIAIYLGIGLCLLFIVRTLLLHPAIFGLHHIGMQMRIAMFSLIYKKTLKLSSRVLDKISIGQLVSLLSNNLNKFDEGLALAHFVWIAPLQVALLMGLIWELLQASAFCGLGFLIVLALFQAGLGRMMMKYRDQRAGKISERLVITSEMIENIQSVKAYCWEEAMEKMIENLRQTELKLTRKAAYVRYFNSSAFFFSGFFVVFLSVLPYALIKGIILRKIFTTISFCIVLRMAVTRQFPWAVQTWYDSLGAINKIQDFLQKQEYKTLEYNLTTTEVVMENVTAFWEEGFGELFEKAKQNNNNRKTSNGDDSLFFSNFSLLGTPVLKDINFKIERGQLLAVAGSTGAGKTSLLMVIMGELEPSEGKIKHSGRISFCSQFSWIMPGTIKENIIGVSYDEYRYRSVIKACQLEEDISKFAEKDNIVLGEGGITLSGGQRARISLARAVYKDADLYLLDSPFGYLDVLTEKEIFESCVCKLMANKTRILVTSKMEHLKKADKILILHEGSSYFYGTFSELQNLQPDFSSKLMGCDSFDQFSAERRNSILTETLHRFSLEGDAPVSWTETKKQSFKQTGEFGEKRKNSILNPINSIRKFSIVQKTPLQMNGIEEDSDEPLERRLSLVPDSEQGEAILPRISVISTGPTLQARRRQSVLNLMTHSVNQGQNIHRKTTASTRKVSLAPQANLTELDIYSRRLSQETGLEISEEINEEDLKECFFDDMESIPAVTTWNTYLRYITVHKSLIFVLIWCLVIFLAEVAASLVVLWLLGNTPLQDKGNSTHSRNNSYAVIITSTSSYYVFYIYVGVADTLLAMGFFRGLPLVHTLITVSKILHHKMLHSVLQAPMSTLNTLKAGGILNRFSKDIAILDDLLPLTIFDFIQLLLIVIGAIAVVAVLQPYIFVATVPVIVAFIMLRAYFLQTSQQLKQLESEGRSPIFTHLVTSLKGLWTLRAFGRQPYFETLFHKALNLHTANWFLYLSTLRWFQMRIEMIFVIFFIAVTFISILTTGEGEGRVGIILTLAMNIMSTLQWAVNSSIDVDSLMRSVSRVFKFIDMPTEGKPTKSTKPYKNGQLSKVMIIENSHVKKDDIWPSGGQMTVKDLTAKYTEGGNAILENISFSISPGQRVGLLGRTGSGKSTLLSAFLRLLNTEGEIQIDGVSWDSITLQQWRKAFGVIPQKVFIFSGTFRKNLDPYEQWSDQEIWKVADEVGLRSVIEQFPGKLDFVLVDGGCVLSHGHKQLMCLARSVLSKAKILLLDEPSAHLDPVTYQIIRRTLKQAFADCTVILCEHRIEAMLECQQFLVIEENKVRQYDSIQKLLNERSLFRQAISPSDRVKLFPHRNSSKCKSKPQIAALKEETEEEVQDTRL

Structure (SMILES) | Ent. B Max Activity | EC50
Cc1cccc(C)c1-c1nc2nc(c1-c1ccncc1)OC[C@@H](C)NC(=O)c1cccc(c1)S(=O)(=O)N2 [Compound 145] | + (+ is <30%) | –
COc1cccc(-c2c3nc(nc2-c2c(C)cccc2C)NS(=O)(=O)c2cccc(c2)C(=O)NC[C@@H](C)O3)c1 [Compound 122, (10R)-6-(2,6-Dimethylphenyl)-7-(3-methoxyphenyl)-10-methyl-2,2-dioxo-9-oxa-2λ^6-thia-3,5,12,19-tetrazatricyclo[12.3.1.14,8]nonadeca-1(18),4(19),5,7,14,16-hexaen-13-one] | +++ (+++ is >60%) | < 1 µM
COC1CC(N2C(=O)c3cccc(c3)S(=O)(=O)Nc3nc(c(C)c(-c4c(C)cccc4C)n3)OC[C@H]2CC2(C(F)(F)F)CC2)C1 (stereo partly drawn) [Compound 100] | +++ (+++ is >60%) | < 1 µM
Cc1cccc(C)c1-c1nc2nc(c1C)OC[C@@H](CC(C)(C)C)N(C1CC3(CCN(C(=O)OC(C)(C)C)CC3)C1)C(=O)c1cccc(c1)S(=O)(=O)N2 [Compound 82] | +++ (+++ is >60%) | < 1 µM
CCc1c2nc(nc1-c1c(C)cccc1C)NS(=O)(=O)c1cccc(c1)C(=O)N[C@@H]1CN(C3CC4(CCCCC4)C3)C[C@H]1O2 [Compound 115] | +++ (+++ is >60%) | < 1 µM
Cc1cccc(C)c1-c1nc2nc(c1C)OC[C@@H](CCC(C)(C)O)N(Cc1ccc(C(C)(C)O)cc1)C(=O)c1cccc(c1)S(=O)(=O)N2 [Compound 112] | ++ (++ is 30-60%) | 1 to 3 µM
Cc1cccc(C)c1-c1nc2nc(c1C)OC[C@@H](CC(C)(C)C)N(C1CC3(CC(N(C)C)C3)C1)C(=O)c1cccc(c1)S(=O)(=O)N2 (stereo partly drawn) [Compound 94] | +++ (+++ is >60%) | < 1 µM
Cc1cccc(C)c1-c1nc2nc(c1C)OC[C@@H](CC(C)(C)C)N(C1CC3(CC(N(C)C)C3)C1)C(=O)c1cccc(c1)S(=O)(=O)N2 (stereo partly drawn) [Compound 95] | +++ (+++ is >60%) | < 1 µM
Cc1cccc(C)c1-c1nc2nc(c1C)OC[C@@H](CC(C)(C)C)N(C1CC3(CC(NC(=O)OC(C)C)C3)C1)C(=O)c1cccc(c1)S(=O)(=O)N2 (single isomer, unassigned) [Compound 62] | +++ (+++ is >60%) | < 1 µM
COc1ccc(-c2c3nc(nc2-c2c(C)cccc2C)NS(=O)(=O)c2cccc(c2)C(=O)NC[C@@H](C)O3)cc1 [Compound 130] | +++ (+++ is >60%) | < 1 µM
Cc1cccc(C)c1-c1nc2nc(c1-c1ccncc1)O[C@H](C)CNC(=O)c1cccc(c1)S(=O)(=O)N2 [Compound 132] | + (+ is <30%) | –
COC(=O)N1CCC2(CC1)CC(N1C(=O)c3cccc(c3)S(=O)(=O)Nc3nc(c(C)c(-c4c(C)cccc4C)n3)OC[C@H]1CC(C)(C)C(F)(F)F)C2 [Compound 183] | +++ (+++ is >60%) | < 1 µM
Cc1cccc(C)c1-c1nc2nc(c1C)OC(c1ccc(CC3(C(F)(F)F)CC3)cn1)CN(C)C(=O)c1cccc(c1)S(=O)(=O)N2 (stereo not drawn) [Compound 205] | +++ (+++ is >60%) | < 1 µM
Cc1cccc(C)c1-c1nc2nc(c1-c1cnn(C)c1)OC[C@@H](C)NC(=O)c1cccc(c1)S(=O)(=O)N2 [Compound 146] | + (+ is <30%) | –
Cc1cccc(C)c1-c1nc2nc(c1C)OC[C@@H](CC(C)C)N([C@H]1C[C@@]3(C[C@H](NC(=O)OC(C)C)C3)C1)C(=O)c1cccc(c1)S(=O)(=O)N2 (single isomer, unassigned) [Compound 52] | +++ (+++ is >60%) | < 1 µM
Cc1cccc(C)c1-c1nc2nc(c1C)OC(c1ccc(CC3(C(F)(F)F)CC3)cn1)CN(C)C(=O)c1cccc(c1)S(=O)(=O)N2 (stereo not drawn) [Compound 203] | +++ (+++ is >60%) | < 1 µM
Cc1cccc(C)c1-c1nc2nc(c1C)OC[C@@H](CC1(C(F)(F)F)CC1)N(C1CC3(CC(CO)C3)C1)C(=O)c1cccc(c1)S(=O)(=O)N2 (stereo partly drawn) [Compound 81] | +++ (+++ is >60%) | < 1 µM
CCc1c2nc(nc1-c1c(C)cccc1C)NS(=O)(=O)c1cccc(c1)C(=O)N(C1CC3(CC3)C1)[C@H](CC(C)(C)C)CO2 [Compound 188] | +++ (+++ is >60%) | < 1 µM
Cc1cccc(C)c1-c1nc2nc(c1C)OC[C@@H](CCC(C)(C)O)N(CCCC(C)(C)O)C(=O)c1cccc(c1)S(=O)(=O)N2 [Compound 109] | ++ (++ is 30-60%) | 3 to 30 µM
Cc1cccc(C)c1-c1nc2nc(c1C)OC[C@@H](CC(C)(C)C)N(C1CC3(CC(N)C3)C1)C(=O)c1cccc(c1)S(=O)(=O)N2 (single isomer, unassigned) [Compound 63] | +++ (+++ is >60%) | < 1 µM
Cc1cccc(C)c1-c1nc2nc(c1CCC(C)(C)C)O[C@H](C)CNC(=O)c1cccc(c1)S(=O)(=O)N2 [Compound 120, (10R)-7-(3,3-Dimethylbutyl)-6-(2,6-dimethylphenyl)-10-methyl-2,2-dioxo-9-oxa-2λ^6-thia-3,5,12,19-tetrazatricyclo[12.3.1.14,8]nonadeca-1(18),4(19),5,7,14,16-hexaen-13-one] | +++ (+++ is >60%) | < 1 µM
COc1ccc(-c2c3nc(nc2-c2c(C)cccc2C)NS(=O)(=O)c2cccc(c2)C(=O)N[C@H](C)CO3)cc1 [Compound 144] | +++ (+++ is >60%) | < 1 µM
Cc1cccc(C)c1-c1nc2nc(c1-c1cnn(CC(C)C)c1)OC[C@@H](C)NC(=O)c1cccc(c1)S(=O)(=O)N2 [Compound 124, (11R)-6-(2,6-Dimethylphenyl)-7-(1-isobutylpyrazol-4-yl)-11-methyl-2,2-dioxo-9-oxa-2λ^6-thia-3,5,12,19-tetrazatricyclo[12.3.1.14,8]nonadeca-1(18),4(19),5,7,14,16-hexaen-13-one] | ++ (++ is 30-60%) | 3 to 30 µM
Cc1cccc(C)c1-c1nc2nc(c1C)OC[C@@H](CC(C)(C)C)N(C1CC3(CCN(C(=O)OC(C)C)CC3)C1)C(=O)c1cccc(c1)S(=O)(=O)N2 [Compound 77] | +++ (+++ is >60%) | < 1 µM
Cc1cccc(C)c1-c1nc2nc(c1C)OC[C@@H](CC1(C(F)(F)F)CC1)N(C1CC3(CC(N)C3)C1)C(=O)c1cccc(c1)S(=O)(=O)N2 (stereo partly drawn) [Compound 92] | +++ (+++ is >60%) | < 1 µM
Cc1cccc(C)c1-c1nc2nc(c1-c1ccccc1)OC[C@@H](C)NC(=O)c1cccc(c1)S(=O)(=O)N2 [Compound 142] | ++ (++ is 30-60%) | < 1 µM
Cc1cccc(C)c1-c1nc2nc(c1-c1cnn(CC(C)C)c1)O[C@H](C)CNC(=O)c1cccc(c1)S(=O)(=O)N2 [Compound 127] | +++ (+++ is >60%) | 1 to 3 µM
